From ChEMBL document CHEMBL1201862, “PubChem BioAssay data set” (2004)
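96-well plates; 48 h exposure; 5 concentrations. Endpoints by linear interpolation between flanking doses. Not reached: highest tested concentration assigned. GI50 = concentration required for 50% inhibition of growth.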 Activity calls are given as the source filed them. Rule as the data show it: active = GI50 up to about 1.1 µM and inactive = higher. *1 amine or outer side, *2 acyl side, *3 side chain or, on linkers, in order; H or OH if unused. Where a SMILES comes first, the peptide text is derived from it. Bridges are numbered along the chain shown (N, C = ends). [ ]: non-standard residue; d: D form. X36 = CC[C@H](C)[C@@H](N[*:1])[C@@H](O)CC(=O)O[C@H](C(=O)[C@H](C)C(=O)[*:2])C(C)C; NMeY = CN[C@@H](Cc1ccc(O)cc1)C(=O)O

Tests used:
Test in all cases: NCI tumour cell line growth inhibition, 48 h
Hs-578T = system: Hs-578T
SK-MEL-28 = system: SK-MEL-28
LOX IMVI = system: LOX IMVI
MCF7 = system: MCF7
RPMI-8226 = system: RPMI-8226
UACC-62 = system: UACC-62
A498 = system: A498
OVCAR-3 = system: OVCAR-3
SF-295 = system: SF-295
MDA-MB-435 = system: MDA-MB-435
NCI-H23 = system: NCI-H23
SF-539 = system: SF-539
CAKI-1 = system: CAKI-1
EKVX = system: EKVX
HL-60 = system: HL-60
IGROV-1 = system: IGROV-1
CCRF-CEM = system: CCRF-CEM
OVCAR-8 = system: OVCAR-8
PC-3 = system: PC-3

Row | SMILES | GI50 (Hs-578T) | GI50 (SK-MEL-28) | GI50 (LOX IMVI) | GI50 (MCF7) | GI50 (RPMI-8226) | GI50 (UACC-62) | GI50 (A498) | GI50 (OVCAR-3) | GI50 (SF-295) | GI50 (MDA-MB-435) | GI50 (NCI-H23) | GI50 (SF-539) | GI50 (CAKI-1) | GI50 (EKVX) | GI50 (HL-60) | GI50 (IGROV-1) | GI50 (CCRF-CEM) | GI50 (OVCAR-8) | GI50 (PC-3)
1 | O=C(CSCC(=O)N/N=C\c1ccc(O)c(O)c1O)N/N=C\c1ccc(O)c(O)c1O | 30.8 µM (inactive) | 20.8 µM (inactive) | 2.18 µM (inactive) | 3.8 µM (inactive) | 2.3 µM (inactive) | 15.6 µM (inactive) | 29.7 µM (inactive) | 3.38 µM (inactive) | 2.24 µM (inactive) | 1.97 µM (inactive) | 1.69 µM (inactive) | 7.67 µM (inactive) | 16.7 µM (inactive) | 21.3 µM (inactive) | 15.8 µM (inactive) | 19.8 µM (inactive) | 1.73 µM (inactive) | 2.31 µM (inactive) | 
2 | CC[C@H](C)[C@H]1NC(=O)[C@@H](N)[C@@H](C)OC(=O)[C@H](Cc2ccc(OC)cc2)N(C)C(=O)[C@@H]2CCCN2C(=O)[C@H](CC(C)C)NC(=O)[C@@H](C)C(=O)[C@H](C(C)C)OC(=O)C[C@@H]1O (H-T[X36]LP[NMeY](Me); ester 1-C) | 12.2 µM (inactive) | 16.8 µM (inactive) | 21.6 µM (inactive) | 33.7 µM (inactive) | 12.7 µM (inactive) | 29.9 µM (inactive) |  | 20.6 µM (inactive) | 29.4 µM (inactive) | 15.5 µM (inactive) | 35.4 µM (inactive) | 26.8 µM (inactive) |  | 44.2 µM (inactive) | 11.7 µM (inactive) | 10.1 µM (inactive) | 22.3 µM (inactive) | 50.7 µM (inactive) | 14.3 µM (inactive)
3 | CC(C)(CO)NC(=O)c1cccs1 |  | > 100 µM (inactive) | > 100 µM (inactive) | > 100 µM (inactive) | > 100 µM (inactive) | > 100 µM (inactive) |  | > 100 µM (inactive) | > 100 µM (inactive) | > 100 µM (inactive) | > 100 µM (inactive) |  | > 100 µM (inactive) | > 100 µM (inactive) | > 100 µM (inactive) | > 100 µM (inactive) | > 100 µM (inactive) | > 100 µM (inactive) | > 100 µM (inactive)
4 | CC(=O)O[C@H]1CCC2[C@@H]3CCC4Nc5oncc5C[C@]4(C)C3CC[C@@]21C (some centres not stated) |  | > 10 µM (inactive) | > 10 µM (inactive) | 8.55 µM (inactive) | > 10 µM (inactive) |  | 4.62 µM (inactive) | 2.55 µM (inactive) | > 10 µM (inactive) | > 10 µM (inactive) | > 10 µM (inactive) | 3.94 µM (inactive) | > 10 µM (inactive) |  | 1.98 µM (inactive) | > 10 µM (inactive) | 3.67 µM (inactive) | > 10 µM (inactive) | > 10 µM (inactive)
5 | CCCCCCCCCCCC(=O)Oc1c(Cl)cc(Cl)c(OC(=O)C(=O)Oc2c(Cl)cc(Cl)c(OC(=O)CCCCCCCCCCC)c2Cl)c1Cl | > 100 µM (inactive) | > 100 µM (inactive) | > 100 µM (inactive) | > 100 µM (inactive) | > 100 µM (inactive) | > 100 µM (inactive) |  |  | > 100 µM (inactive) | > 100 µM (inactive) | > 100 µM (inactive) |  | > 100 µM (inactive) | > 100 µM (inactive) |  | > 100 µM (inactive) | > 100 µM (inactive) | > 100 µM (inactive) | > 100 µM (inactive)
6 | O=C1CS(=O)(=O)C(c2cccc(Oc3ccccc3)c2)N1C1CC1 (configuration not stated) | > 100 µM (inactive) | 90.6 µM (inactive) | 41.7 µM (inactive) | 22.8 µM (inactive) |  | 31.6 µM (inactive) |  | 33 µM (inactive) | 36.6 µM (inactive) | 26.2 µM (inactive) | 28 µM (inactive) | 50.9 µM (inactive) | 0.045 µM (active) | 29 µM (inactive) | 30.8 µM (inactive) |  | 60.1 µM (inactive) | 38.5 µM (inactive) | 25.8 µM (inactive)
7 | CCSc1[nH]c(Nc2nc(-c3ccccc3)n(-c3ccccc3)n2)c(C(N)=O)c1C(N)=O |  | > 10 µM (inactive) | > 10 µM (inactive) | > 10 µM (inactive) | > 10 µM (inactive) | > 10 µM (inactive) |  |  | 9.62 µM (inactive) | > 10 µM (inactive) | > 10 µM (inactive) |  | > 10 µM (inactive) | > 10 µM (inactive) | > 10 µM (inactive) | > 10 µM (inactive) | > 10 µM (inactive) | 6.64 µM (inactive) | > 10 µM (inactive)
8 | CC(=O)OCC1(C)C(OC(C)=O)CCC2(C)C(CC(OC(C)=O)C3=CCOC3=O)C(O)(CO)CCC12 (configuration not stated) |  | > 100 µM (inactive) | > 100 µM (inactive) |  | > 100 µM (inactive) | > 100 µM (inactive) | > 100 µM (inactive) | > 100 µM (inactive) | > 100 µM (inactive) |  | > 100 µM (inactive) | > 100 µM (inactive) | > 100 µM (inactive) | > 100 µM (inactive) | 61.5 µM (inactive) | > 100 µM (inactive) | 53.1 µM (inactive) | > 100 µM (inactive) | 
9 | C=C(CC(NC(=O)c1ccc(C(CC)Cc2cnc3nc(N)nc(N)c3n2)cc1)C(=O)O)C(=O)O (configuration not stated) |  | 0.209 µM (active) | 0.00436 µM (active) |  | 0.029 µM (active) | 0.163 µM (active) | 0.632 µM (active) | 0.19 µM (active) | 0.00113 µM (active) | 0.0369 µM (active) | 0.244 µM (active) | 0.00319 µM (active) | 0.169 µM (active) | 52.7 µM (inactive) | 0.00376 µM (active) | 0.0274 µM (active) | 0.01 µM (active) | 0.0217 µM (active) | 0.0527 µM (active)
10 | O=C(COc1ccc(OCC(=O)N2C(=O)CN(c3ccc(Cl)cc3)C2=S)cc1)N1C(=O)CN(c2ccc(Cl)cc2)C1=S |  | 36.3 µM (inactive) |  | 34 µM (inactive) | 21.2 µM (inactive) | 16.5 µM (inactive) | 22.1 µM (inactive) |  | 29 µM (inactive) | 31.2 µM (inactive) | 32.5 µM (inactive) |  | 19.6 µM (inactive) | 6.62 µM (inactive) |  | 26.6 µM (inactive) |  |  | 23.9 µM (inactive)
11 | CN1C(=O)C2(c3ccccc31)C1CC3C(CO1)C1C2C3(CO)CN1C#N (configuration not stated) | > 100 µM (inactive) | > 100 µM (inactive) | > 100 µM (inactive) | > 100 µM (inactive) | > 100 µM (inactive) | > 100 µM (inactive) |  | > 100 µM (inactive) | > 100 µM (inactive) | > 100 µM (inactive) | > 100 µM (inactive) |  | > 100 µM (inactive) | > 100 µM (inactive) | > 100 µM (inactive) | > 100 µM (inactive) | > 100 µM (inactive) | > 100 µM (inactive) | > 100 µM (inactive)
12 | CC1(C)COC(c2cccc(C3=NC(C)(C)CO3)c2)=N1 |  | > 100 µM (inactive) | > 100 µM (inactive) | > 100 µM (inactive) | > 100 µM (inactive) | 64.3 µM (inactive) |  | 0.0375 µM (active) |  | > 100 µM (inactive) | > 100 µM (inactive) | > 100 µM (inactive) | > 100 µM (inactive) | > 100 µM (inactive) |  | > 100 µM (inactive) |  | > 100 µM (inactive) | > 100 µM (inactive)
13 | CCC(=O)n1c(=O)n(-c2ccc([N+](=O)[O-])cc2)c(=O)n1C(=O)CC | > 100 µM (inactive) | > 100 µM (inactive) | > 100 µM (inactive) | > 100 µM (inactive) | > 100 µM (inactive) | > 100 µM (inactive) |  | > 100 µM (inactive) | > 100 µM (inactive) | > 100 µM (inactive) | > 100 µM (inactive) |  | > 100 µM (inactive) | > 100 µM (inactive) | > 100 µM (inactive) | > 100 µM (inactive) | > 100 µM (inactive) | > 100 µM (inactive) | > 100 µM (inactive)
14 | O=C(/N=C1\SCCN1C(=O)C(C(F)(F)F)C(F)(F)F)C(C(F)(F)F)C(F)(F)F |  | > 100 µM (inactive) | > 100 µM (inactive) | > 100 µM (inactive) | > 100 µM (inactive) |  | > 100 µM (inactive) | > 100 µM (inactive) | > 100 µM (inactive) | > 100 µM (inactive) | > 100 µM (inactive) | > 100 µM (inactive) | > 100 µM (inactive) | > 100 µM (inactive) | > 100 µM (inactive) | > 100 µM (inactive) | > 100 µM (inactive) | > 100 µM (inactive) | > 100 µM (inactive)
15 | Cc1c(NC(=O)CCl)c(=O)oc2c(C)c3occc(=O)c3cc12 | 15.5 µM (inactive) | 12.8 µM (inactive) |  | 6.79 µM (inactive) | 7.87 µM (inactive) |  | 16.9 µM (inactive) |  | 12.6 µM (inactive) |  |  |  | 12.3 µM (inactive) | 18.9 µM (inactive) | 5.28 µM (inactive) | 11.6 µM (inactive) | 3.48 µM (inactive) | 13.9 µM (inactive) | 
16 | Cc1nc2ccc(N)cc2nc1O |  |  | > 100 µM (inactive) |  | > 100 µM (inactive) | > 100 µM (inactive) | > 100 µM (inactive) | > 100 µM (inactive) | > 100 µM (inactive) |  |  | > 100 µM (inactive) | > 100 µM (inactive) | > 100 µM (inactive) | > 100 µM (inactive) | > 100 µM (inactive) | > 100 µM (inactive) | > 100 µM (inactive) | 
17 | CC1CCC(C(=O)O)(C(Br)C(=O)O)CC1 (configuration not stated) |  | > 100 µM (inactive) | > 100 µM (inactive) |  | > 100 µM (inactive) | > 100 µM (inactive) |  | > 100 µM (inactive) | > 100 µM (inactive) | > 100 µM (inactive) | > 100 µM (inactive) |  | > 100 µM (inactive) | > 100 µM (inactive) | > 100 µM (inactive) | > 100 µM (inactive) | > 100 µM (inactive) | > 100 µM (inactive) | > 100 µM (inactive)
